We go through 7 compounds from ChEMBL document CHEMBL4699477, “Tricyclic sulfones as potent, selective and efficacious RORγt inverse agonists - Exploring C6 and C8 SAR using late-stage functionalization” (Bioorg Med Chem Lett, 2020).

One data set relates to Mus musculus. The data set is described as follows: Protection against recombinant human IL23-induced acanthosis C57BL/6 mouse model assessed as reduction in ear swelling at 50 mg/kg, po administered bid for 9 days. The settings on record: time 9.0 day. The format is functional, organism-based.
A short description of data set [1]: Metabolic stability in human liver microsomes assessed as half life. The format is ADME, Microsome. In general terms: Microsomes from liver hold many membrane-bound enzymes, among them those of drug oxidation.
A short description of data set [2]: Metabolic stability in rat liver microsomes assessed as half life. Type of data set: ADME, Microsome.
Data set [3] is described as follows: Metabolic stability in mouse liver microsomes assessed as half life. The format is ADME, Microsome.
For data set [4], the target named is T1, Nuclear receptor ROR-gamma (Homo sapiens, UniProt P51449).
T1 sequence (P51449 whole entry): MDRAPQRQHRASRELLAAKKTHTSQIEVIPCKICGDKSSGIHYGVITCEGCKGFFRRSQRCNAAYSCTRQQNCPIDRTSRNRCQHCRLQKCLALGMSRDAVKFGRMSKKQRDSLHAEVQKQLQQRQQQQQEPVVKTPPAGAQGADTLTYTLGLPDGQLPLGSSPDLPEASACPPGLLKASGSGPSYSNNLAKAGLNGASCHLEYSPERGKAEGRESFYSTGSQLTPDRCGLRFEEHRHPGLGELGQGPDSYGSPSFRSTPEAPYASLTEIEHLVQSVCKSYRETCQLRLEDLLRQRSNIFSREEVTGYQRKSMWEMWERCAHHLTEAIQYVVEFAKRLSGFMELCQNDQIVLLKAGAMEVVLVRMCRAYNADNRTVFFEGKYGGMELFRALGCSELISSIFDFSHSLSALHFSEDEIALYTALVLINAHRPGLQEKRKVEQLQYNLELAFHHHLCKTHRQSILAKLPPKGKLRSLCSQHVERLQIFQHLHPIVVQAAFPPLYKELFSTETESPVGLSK
Kind of data set: Inverse agonist activity at Gal4-fused RORgammat (unknown origin).

Data set [5] is described as follows: Drug concentration in Balb/c mouse at 10 mg/kg, po measured after 24 hrs. Type of data set: ADME, organism-based. Particulars: in vivo, read-out: Drug uptake.
Data set [6] deals with T1, Nuclear receptor ROR-gamma. The data set is described as follows: Inverse agonist activity at RORgammat in CD3 and CD28-stimulated human whole blood assessed as reduction in IL17A production incubated for 1 hr before CD3 and CD28 stimulation for 20 hrs by AlphaLISA method. The format is tissue-based. For orientation: In Alpha technology, singlet oxygen from a donor bead excites a nearby acceptor bead.

A short description of data set [7]: Cmax in Balb/c mouse at 10 mg/kg, po. Type of data set: ADME, organism-based. The arrangement: route oral, dose 10 mg/kg. Particulars: in vivo.
The nature of data set [8]: GSH reactivity in human liver cytosol assessed as GSH adduct formation. Type of data set: ADME, subcellular, Cytoplasm.

Calls of active or inactive are those of the source. No cut-off for these calls is given here.

As to `O=C(O)[C@H]1CC[C@H](C(=O)N2CC[C@](c3ccc(C(F)(C(F)(F)F)C(F)(F)F)cc3)(S(=O)(=O)c3ccc(F)cc3)C2)CC1`, the inhibition result in the data set on Mus musculus is “Active”.

The half-life is the time in which the quantity being followed falls by half. On to `Cc1cc2c(cc1C(F)(C(F)(F)F)C(F)(F)F)CC[C@H]1N(C(=O)[C@H]3CC[C@H](C(=O)O)CC3)CC[C@@]21S(=O)(=O)c1ccc(F)cc1`, for which the half-life in data set [1], in data set [2] and in data set [3] was above 2 h throughout.

A word on the EC50: it is the concentration at which the effect is half-maximal. A word on the Cmax: it is the maximum level reached in the sampled fluid or tissue. For the compound `N#Cc1cc2c(cc1C(F)(C(F)(F)F)C(F)(F)F)CC[C@H]1N(C(=O)[C@H]3CC[C@H](C(=O)O)CC3)CC[C@@]21S(=O)(=O)c1ccc(F)cc1`, the values for the EC50 in data set [4] and in data set [6] were 17 nM and 13 nM, respectively. Moreover, the concentration at 24 h in data set [5] stood at 1600 nM. Also, the half-life in [1] was above 2 h; in data set [2] it was 1.45 h; in [3], above 2 h. In data set [7], the Cmax was found to be 8600 nM.

In the case of `C[C@H]1C[C@H](C(=O)O)CC[C@H]1C(=O)N1CC[C@@]2(S(=O)(=O)c3ccc(F)cc3)c3ccc(C(F)(C(F)(F)F)C(F)(F)F)cc3CC[C@@H]12` [BMS-986251], the half-life in data set [1], in data set [2] and in data set [3] was above 2 h in each case. In addition, the Activity in data set [8] is on record as 6%.

On to `O=C(O)[C@H]1CC[C@H](C(=O)N2CC[C@@]3(S(=O)(=O)c4ccc(F)cc4)c4cc(Cl)c(C(F)(C(F)(F)F)C(F)(F)F)cc4CC[C@@H]23)CC1`, for which the half-life in data set [1] was above 2 h; in data set [2], 1.38 h; in [3] it was above 2 h.

Regarding `O=C(O)[C@H]1CC[C@H](C(=O)N2CC[C@@]3(S(=O)(=O)c4ccc(F)cc4)c4ccc(C(F)(C(F)(F)F)C(F)(F)F)cc4CC[C@@H]23)CC1`, in [5], the concentration at 24 h worked out at 400 nM. The compound also registered a Cmax in data set [7] of 1400 nM.

As to `C[C@H]1C[C@H](C(=O)O)CC[C@H]1C(=O)N1CC[C@@]2(S(=O)(=O)c3ccccc3)c3ccc(C(F)(C(F)(F)F)C(F)(F)F)cc3CC[C@@H]12`, in [6], the EC50 was 52 nM.
